Data as given in patent US12552854B2, “Peptides that block presentation of antigenic islet peptides by HLA-DQ8 and methods for treating type-1 diabetes” (Icahn School of Medicine at Mount Sinai, priority 2019, dated 2026).
“And” between values parts separate entries of the source, which are not always exact repeats. Equal values may be shown once. “Also recorded” adds a separate entry of the source.

How the values were obtained:
[1] = FIG. 23A
Experimental: Table printed on a drawing sheet, FIG. 23A
Data from a dose of 10 mg/kg and a single discrete subcutaneous dose of 10 mg/kg are shown. FIG. 23B is a graph showing mean RI-CT whole blood concentrations in male CD-1 mice following a single IV bolus dose of 10 mg/kg and a single SC dose of 10 mg/kg. […] This is a long half-life that will make it feasible to use RI-CT in a clinical setting with a once daily dose.
First reader's note: IV arm; the last four rows (n, Mean, SD, CV%) are summary statistics over the animals, and the urine values are one merged cell for Mouse 1-4.

[2] = Pharmacokinetics of RI-CT in male CD-1 mice; conditions: mouse, in vivo
Experimental: 30 μL of each STD, QC sample and matrix for blanks was added to separate wells of a 96 well plate. 800 μL of water:MeOH (95:5, v/v) was added to the STDs, QCs and blanks. For study samples, 400 μL of water:MeOH (95:5, v/v) was added to each. Mouse whole blood samples were diluted 1:2 with 0.1% formic acid in an aqueous 25 mM EDTA solution when samples were collected; consequently, there was an initial dilution factor of 3. Additionally, 400 μL of water:MeOH (95:5, v/v) was added to each diluted sample. To all samples, 20 μL of internal standard (200 ng/mL tolbutamide) solution in water was added. The samples were vortexed vigorously for 5 minutes and then loaded onto a pre-conditioned Oasis HLB 96-well SPE plate. The Oasis HLB 96-well SPE plate was conditioned with 1 mL of methanol and then rinsed with 1 mL of water before the samples were loaded. Once loaded onto the Oasis HLB 96-well SPE plate, residual solution was removed by vacuum. The samples were eluted into a clean 96-well plate with 800 μL of ACN: 0.1% aqueous formic acid (70:30, v/v). The samples were evaporated to dryness under nitrogen at ambient temperature using a TurboVap 96 Concentration Workstation (Caliper Life Sciences). The residues were reconstituted in 150 μL of ACN: 0.1% aqueous formic acid (25:75, v/v) and 10 μL of 0.1 M TCEP. The samples were vortexed for approximately 10 minutes and then aliquots were injected for LC-MS/MS analysis.
• LC System: System #731 • HPLC Pump: Shimadzu LC-30AD • Autosampler: Shimadzu SIL-30AC MP HPLC Conditions: • Mobile Phase A=0.1% Aqueous Formic Acid • Mobile Phase B=0.1% Formic Acid in ACN • Column Temperature=Ambient • Injection Volume=8 μL • Column=ACE C8, 2.1×50 mm, 5 μm • Flow rate=0.6 mL/min • MS/MS System: System #730 • SCIEX API 5500 Triple Quad (S/N 213451604) MS Conditions: • Scan Type=MRM • Polarity=Positive • Ion Source=ESI • CAD=10 • CUR=20 • GS1/GS2=50/50 • IS=2500 • TEM=550

[3] = test system: PBMCs isolated from DQ8 positive T1D patients; test: CFSE T-cell proliferation in PBMCs from DQ8 positive recent-onset T1D patients; assay type: cell-based, human; conditions: all peptides at 50 μg/ml
Source text: Subjects with a diagnosis of T1D within the previous 2 years were recruited from the Pediatric Endocrine clinic at Children Hospital at Montefiore and from the adult Endocrine clinics at Montefiore and Mount Sinai Hospitals (New York). Peripheral blood mononuclear cells (PBMCs) were isolated from heparinized blood using Ficoll-Paque (GE Healthcare); freshly isolated PBMCs were used for T-cell activation studies and for genotyping. DNA purified from the blood of the patients was typed for HLA-DQ as previously described (32). PBMCs isolated from DQ8 positive patients were seeded in 96 well plates with 200 μl medium (RPMI, 10% FBS). […] The stimulated PBMCs were assessed for cytokine production and T-cell proliferation as described above for mouse splenocytes. DQ8 typed patients with long standing T1D (>10 years) were used as negative controls in the experiments (no T-cell responses to islet peptides).

[4] = test system: splenocytes isolated from SJL-DQ8 mice; test: Ex vivo CFSE T-cell proliferation, splenocytes of InsB:9-23-immunized SJL-DQ8 mice; assay type: cell-based, mouse; conditions: all peptides at 50 μg/ml; 5 days
Source text: ID NO: 23) and reverse primer [NT]

[5] = Metabolic stability in mouse hepatocytes; assay type: in vitro ADME; conditions: 1 μM
Experimental: Cryopreserved mouse hepatocytes were thawed at 37° C. in water bath until the ice was almost melted (˜90 seconds). The suspensions from the each were immediately transferred to 50 mL centrifuge tubes containing pre-warmed thawing media (VitroGRO HT Medium, Thawing) at 37° C. The cell suspensions were centrifuged at 50 g for 5 minutes at 4° C. (SYS679). Supernatants were discarded and the pellets were re-suspended in pre-warmed 3 mL incubation media (from in vitroGRO HT Medium, Incubation) at 37° C. The percentages of viable cells in the suspension were determined by using the Trypan Blue stain method (20 μL of tryptan blue and 20 μL of cell suspension) DF=2. Cryo mouse hepatocyte (Bioreclamation, lot #CHV) viability was 72.62% (viable/dead=305/115), and the total cells were 4.57 million. 1.57 mL of incubation media was added to cell concentration to get 1 million cells/mL. 10 μl of 100 μM test compounds stock in ACN:H2O (v:v, 1:1) was added to 990 μl of hepatocyte suspension/incubation media in a 24-well plate. 10 μl of 20 μM Midazolam was added to 990 μl of hepatocyte suspension as a positive control in a 24-well plate. The cells were incubated in a 37° C. incubator (SYS431) for 4 hours. 50 μl of aliquots (n=2) were added to 800 ul of MeOH:water (v:v, 5:95) at 0, 15, 30, 60, 120, 180 and 240 minutes. For all samples, 20 μL of internal standard (200 ng/mL tolbutamide) was added to the solution in water. The samples were vortexed vigorously for 5 minutes and then loaded onto a pre-conditioned Oasis HLB 96-well SPE plate (10 mg, […]). The Oasis HLB 96-well SPE plate was conditioned with 1 mL of methanol and then rinsed with 1 mL of water before the samples were loaded. Once loaded onto the Oasis HLB 96-well SPE plate, residual solution was removed by vacuum. The samples were eluted into a clean 96-well plate with 800 μL of 0.1% formic acid in 70% acetonitrile. The samples were evaporated to dryness under nitrogen at ambient temperature using a TurboVap 96 Concentration Workstation (Caliper Life Sciences). […]

## CC(C)C[C@@H](NC(=O)[C@@H](Cc1ccc(O)cc1)NC(=O)[C@@H](CC(C)C)NC(=O)[C@H](NC(=O)[C@@H](CS)NC(=O)CNC(=O)[C@@H](CCC(=O)O)NC(=O)[C@@H](CCCNC(=N)N)NC(=O)CNC(=O)CN)C(C)C)C(=O)N[C@H](C)C(=O)N[C@H](CCC(=O)O)C(=O)N[C@@H](C(=O)NCC(=O)NCC(=O)O)C(C)C [RI-CT]
[1]
  AUC0-24: 5340 ng·h/mL
  AUClast: 4350 ng·h/mL and 6260 ng·h/mL and 5520 ng·h/mL
  C0: 15400 ng/mL
  MRTinf: 4.72 h
  Urine | CLrenal: 2.6 mL/min/kg
  Urine | Recovery (%): 8.70%
[2]; iv, 10 mg/kg
  clearance: 27 mL/min/kg
  half-life: 7.46 h
[2]; sc, 10 mg/kg
  AUC(0-inf): 4140 ng·h/mL
  Cmax: 5120 ng/mL
  Tmax: 0.77 h
  bioavailability: 47%
  half-life: 6.02 h
[2]; IV, single dose of 10 mg/kg, whole blood, read-out: volume of distribution
  Vd: 6.9 L/kg
[3]
  T-cell proliferation induced by InsB:9-23 (CFSE assay), PBMCs of DQ8 positive T1D patients: significantly suppressed; also recorded: significantly decreased
[4]
  T-cell proliferation induced by InsB:9-23 (CFSE assay), SJL-DQ8 splenocytes: significantly suppressed; also recorded: significantly decreased
[5]; 4 hours
  consumption of the peptide after incubation with murine hepatocytes: little/no consumption
[5]; mouse hepatocytes
  metabolic stability (comparison): higher metabolic stability compared to RI-EXT
